Two compounds from publication PMC12888920, “MMP-9 regulates disulphide isomerase activity of TGM2 to enhance fusion glycoprotein-mediated syncytium formation of respiratory syncytial virus” (Protein & Cell, 2025) can be followed below.

The test system of experiment [1] is RSV A2. Briefly: High-throughput antiviral screening of protease inhibitor library against RSV A2 in HEp-2 cells. It is filed as cell-based, Respiratory syncytial virus. The following applies: RSV A2, MOI = 0.1, 1, 5, 10 µmol/L, 72 hpi. An excerpt: Figure 1. Antiviral activity of metalloproteinase inhibitors against RSV in vitro. (A) Experimental workflow for RSV A2 infection and compound treatment. (B) High-throughput screening of TargetMol L1100 library (246 host protease inhibitors targeting 10 pathways: MMPs, caspases, proteasomes, apoptosis regulators, cysteine proteases, gamma-secretase, autophagy modulators, serine proteases, DPP-4, and beta-secretase) using concentration gradients (1, 5, 10 µmol/L). HEp-2 cells were pretreated with compounds for 1 hour prior to RSV A2 infection (MOI = 0.1). Plaque formation was quantified at 72 hours post-infection (hpi) and normalized to DMSO controls. […] (G) Target overlap analysis of four MMP-9-targeting inhibitors. (H) Viral titers in supernatants of HEp-2 cells transfected with MMP-specific siRNAs (24 h) followed by RSV A2 infection (MOI = 1, 72 h). mean ± SD, n = 3. The results are representatively shown with three random experiments. The error bars indicate the mean ± SD of three technical replicates (n = 3). Statistical significance was determined by one-way ANOVA with Dunnett’s post hoc test: *P < 0.05, ***P < 0.001; ns, not significant.
104 High-throughput antiviral screening
105 The L1100 protease inhibitor library (246 compounds; L1100, TargetMol) was
106 screened against RSV A2 in HEp -2 cells. Compounds (10 mM DMSO stocks) were
107 robotically dispensed 1 h pre -infection at final concentrations of 1, 5, 10 μM.
108 Infection rates (72 hpi) were normalized to PC786 (1 μM; positive control; HY -
109 111813, MCE) and 0.1% DMSO vehicle. Primary hits (>50% CPE reduction + not
110 overtly cytotoxic) underwent dose -response validation (0.00004 –10 μM) to generate
111 EC50 curves (GraphPad Prism 8.0) .
112 Evaluation of in vitro antiviral activity
113 Compound inhibitor treatments: HEp-2 cells (1.3×10⁴/well) or HBEC (1.8×10⁴/well)
114 were pretreated with test compounds for 1 h before RSV A2/B18537 infection
115 (MOI=0.1 or 0.3). Viral inhibition was quantified at 72 hpi via FFA. Fixed cells (4%
116 PFA) were permeabilized (0.3% Triton X-100), stained with anti-RSV-FITC
118 Fluorescent foci were normalized to nuclear counts (ImageJ software) for EC 50
119 determination via four-parameter logistic regression (GraphPad Prism 8.0). Data
120 represent triplicate experiments. […]

The subject of experiment [2] is RSV A2. The experiment can be described thus: BALB/c mouse model of RSV A2 infection, oral treatment. The following applies: 4 dpi, 3 × 10^6 PFU RSV A2. It is filed as in vivo, BALB/c mice. As to the method:
To evaluate the antiviral efficacy of metalloproteinase inhibitors, we employed a BALB/c mouse model intranasally challenged with 3 × 10^6 PFU RSV A2. Mice received twice-daily oral administration of JNJ0966 (selective targeting of MMP-9 ([Scannevin et al., 2017]), 20 or 60 mg/kg [mpk]) or doxycycline hyclate (a broad-spectrum MMP inhibitor ([Patnaik et al., 2021]; [Samtani et al., 2009]), 60 or 180 mpk), beginning 2 hpi (Fig. 9A). By 4 dpi, JNJ0966 (60 mpk) and doxycycline hyclate (180 mpk) reduced lung viral titers by 2.6-fold and 2.0-fold, respectively, compared to vehicle-treated controls (Fig. 9B).
Figure 9. Therapeutic efficacy of MMP-9 inhibitors against RSV in mice. (A) Therapeutic regimen. […] Lung viral titers quantified by FFA at 4 dpi. mean ± SD, n = 5/group. […] Statistical significance was determined by one-way ANOVA with Dunnett’s post hoc test (B, D): **P < 0.01, ***P < 0.001. […]
314 50 μL of stop solution, absorbance at 540 nm was subtracted from the reading at
315 450 nm by PerkinElmer Ensight reader, and analyte concentrations were calculated […]
329 using a tissue grinder. Viral titers were quantified via FFA using 100 μL of […]
332 Two blinded pathologists independently scored histopathological changes on a 0 -4 […]
336 Body weights were monitored daily. […]
337 transcriptomic analyses. Viral loads were determined as focus -forming units per gram […]

For the compound `COc1ccccc1Nc1nc(-c2sc(NC(C)=O)nc2C)cs1` [JNJ0966], in the experiment with RSV A2 [1], the “inhibition of RSV infection in HEp-2 cells” value was “significant dose-dependent inhibition”. Moreover, the “reduction of lung viral titers compared to vehicle-treated controls” value with RSV A2 [2] (60 mpk oral twice daily) is 2.6 fold.
Regarding Doxycycline hyclate, the “inhibition of RSV infection in HEp-2 cells” value in the experiment on RSV A2 [1] is reported as “significant dose-dependent inhibition”. Moreover, the “reduction of lung viral titers compared to vehicle-treated controls” value with RSV A2 [2] (180 mpk oral twice daily) worked out at 2.0 fold.
